According to patent US6506765B2 (TAP Pharmaceutical Products, Inc., priority 2000, dated 2003):
Like-named read-outs stand apart in the source and are kept apart here.

Assays:
[1] = target: calcitonin gene related peptide (CGRP) (Homo sapiens, UniProt O60894+Q16602); assay: radioligand binding assay, CGRP
Adrenergic α2A = Adrenergic α2A (Homo sapiens, UniProt P08913); assay: radioligand binding assay, Adrenergic α2A
Experimental: (§1) Routine radioligand binding assays were performed using reference standards according to established methodology. IC50 values were determined by a non-linear least square regression analysis.

Adrenergic α1A = Adrenergic α1A (Homo sapiens, UniProt P35348); assay: radioligand binding assay, Adrenergic α1A
Experimental: as §1

nitric oxide synthetase = assay: activity of nitric oxide synthetase; format: biochemical
muscarinic M1 = muscarinic M1 (Homo sapiens, UniProt P11229); assay: radioligand binding assay, muscarinic M1
Experimental: as §1

dopamine D4.7 = assay: radioligand binding assay, dopamine D4.7
Experimental: as §1

neuropeptide Y NPY1 = neuropeptide Y NPY1 (Homo sapiens, UniProt P25929); assay: radioligand binding assay, neuropeptide Y NPY1
Experimental: as §1

tachykinin NK2 = tachykinin NK2 (Homo sapiens, UniProt P21452); assay: radioligand binding assay, tachykinin NK2
Serotonin 5-HT1B = Serotonin 5-HT1B (Homo sapiens, UniProt P28222); assay: radioligand binding assay, Serotonin 5-HT1B
dopamine D4.2 = assay: radioligand binding assay, dopamine D4.2
Experimental: as §1

tachykinin NK3 = tachykinin NK3 (Homo sapiens, UniProt P29371); assay: radioligand binding assay, tachykinin NK3
Serotonin 5-HT2 = assay: radioligand binding assay, Serotonin 5-HT2
[2] = test system: gamma aminobutyric acid GABAA; assay: radioligand binding assay, GABAA
dopamine D4.4 = dopamine D4.4 (Homo sapiens, UniProt P21917); assay: radioligand binding assay, dopamine D4.4
Experimental: as §1

[3] = target: vasoactive intestinal peptide (VIP1) (Homo sapiens, UniProt P32241); assay: radioligand binding assay, VIP1
serotonin 5-HT4 = serotonin 5-HT4 (Homo sapiens, UniProt Q13639); assay: radioligand binding assay, serotonin 5-HT4
muscarinic M4 = muscarinic M4 (Homo sapiens, UniProt P08173); assay: radioligand binding assay, muscarinic M4
[4] = target: gamma aminobutyric acid GABAB (Homo sapiens, UniProt Q9UBS5); assay: radioligand binding assay, GABAB
adrenergic β2 = adrenergic β2 (Homo sapiens, UniProt P07550); assay: radioligand binding assay, adrenergic β2
Experimental: as §1

Serotonin 5-HT7 = Serotonin 5-HT7 (Homo sapiens, UniProt P34969); assay: radioligand binding assay, Serotonin 5-HT7
Experimental: as §1

muscarinic M5 = muscarinic M5 (Homo sapiens, UniProt P08912); assay: radioligand binding assay, muscarinic M5
Serotonin 5-HT1A = Serotonin 5-HT1A (Homo sapiens, UniProt P08908); assay: radioligand binding assay, Serotonin 5-HT1A
Experimental: as §1

muscarinic M3 = muscarinic M3 (Homo sapiens, UniProt P20309); assay: radioligand binding assay, muscarinic M3
Experimental: as §1

nicotinic = assay: radioligand binding assay, nicotinic
adrenergic β1 = adrenergic β1 (Homo sapiens, UniProt P08588); assay: radioligand binding assay, adrenergic β1
Experimental: as §1

Serotonin 5-HT2A = Serotonin 5-HT2A (Homo sapiens, UniProt P28223); assay: radioligand binding assay, Serotonin 5-HT2A
Experimental: as §1

muscarinic M2 = muscarinic M2 (Homo sapiens, UniProt P08172); assay: radioligand binding assay, muscarinic M2
Experimental: as §1

neuropeptide Y NPY2 = neuropeptide Y NPY2 (Homo sapiens, UniProt P49146); assay: radioligand binding assay, neuropeptide Y NPY2
Experimental: as §1

tachykinin NK1 = tachykinin NK1 (Homo sapiens, UniProt P25103); assay: radioligand binding assay, tachykinin NK1
Serotonin 5-HT6 = Serotonin 5-HT6 (Homo sapiens, UniProt P50406); assay: radioligand binding assay, Serotonin 5-HT6
adrenergic β3 = adrenergic β3 (Homo sapiens, UniProt P13945); assay: radioligand binding assay, adrenergic β3
Experimental: as §1

Opiate μ = Opiate μ (Homo sapiens, UniProt P35372); assay: radioligand binding assay, Opiate μ
Experimental: as §1

Dopamine D3 = Dopamine D3 (Homo sapiens, UniProt P35462); assay: radioligand binding assay, Dopamine D3
Experimental: as §1

Dopamine D2S = Dopamine D2S (Homo sapiens, UniProt P14416); assay: radioligand binding assay, Dopamine D2S
Experimental: as §1

Adrenergic α2B = Adrenergic α2B (Homo sapiens, UniProt P18089); assay: radioligand binding assay, Adrenergic α2B
Experimental: as §1

Adrenergic α1B = Adrenergic α1B (Homo sapiens, UniProt P35368); assay: radioligand binding assay, Adrenergic α1B
Adrenergic α2C = Adrenergic α2C (Homo sapiens, UniProt P18825); assay: biochemical
Experimental: as §1

opiate δ = opiate δ (Homo sapiens, UniProt P41143); assay: radioligand binding assay, opiate δ
Experimental: as §1

opiate κ = opiate κ (Homo sapiens, UniProt P41145); assay: radioligand binding assay, opiate κ
Experimental: as §1

Serotonin 5-HT1D = Serotonin 5-HT1D (Homo sapiens, UniProt P28221); assay: radioligand binding assay, Serotonin 5-HT1D
Experimental: as §1

Sequence of neuropeptide Y NPY2 (P49146 whole entry): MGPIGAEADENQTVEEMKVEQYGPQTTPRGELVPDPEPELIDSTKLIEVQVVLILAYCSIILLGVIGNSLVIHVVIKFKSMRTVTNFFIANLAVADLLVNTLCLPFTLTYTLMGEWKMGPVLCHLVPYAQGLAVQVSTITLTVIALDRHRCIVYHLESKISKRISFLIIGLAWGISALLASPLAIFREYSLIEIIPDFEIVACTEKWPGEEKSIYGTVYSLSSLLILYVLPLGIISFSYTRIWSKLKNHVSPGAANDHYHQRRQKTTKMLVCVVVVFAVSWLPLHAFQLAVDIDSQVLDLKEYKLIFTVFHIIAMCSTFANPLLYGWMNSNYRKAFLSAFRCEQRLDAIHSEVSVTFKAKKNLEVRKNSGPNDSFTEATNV
Sequence of Serotonin 5-HT6 (P50406 whole entry): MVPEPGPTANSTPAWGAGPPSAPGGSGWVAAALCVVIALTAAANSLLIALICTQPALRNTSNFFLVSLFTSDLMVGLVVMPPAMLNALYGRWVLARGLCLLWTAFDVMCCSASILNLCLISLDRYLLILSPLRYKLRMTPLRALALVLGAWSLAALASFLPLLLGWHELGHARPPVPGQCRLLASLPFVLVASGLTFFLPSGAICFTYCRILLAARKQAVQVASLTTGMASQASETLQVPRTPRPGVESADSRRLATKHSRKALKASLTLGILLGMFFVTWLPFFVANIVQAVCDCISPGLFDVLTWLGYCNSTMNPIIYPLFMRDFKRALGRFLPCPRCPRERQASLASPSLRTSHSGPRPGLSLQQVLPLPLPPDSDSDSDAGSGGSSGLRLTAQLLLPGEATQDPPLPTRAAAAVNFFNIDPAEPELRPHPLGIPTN
Sequence of Adrenergic α2A (P08913 whole entry): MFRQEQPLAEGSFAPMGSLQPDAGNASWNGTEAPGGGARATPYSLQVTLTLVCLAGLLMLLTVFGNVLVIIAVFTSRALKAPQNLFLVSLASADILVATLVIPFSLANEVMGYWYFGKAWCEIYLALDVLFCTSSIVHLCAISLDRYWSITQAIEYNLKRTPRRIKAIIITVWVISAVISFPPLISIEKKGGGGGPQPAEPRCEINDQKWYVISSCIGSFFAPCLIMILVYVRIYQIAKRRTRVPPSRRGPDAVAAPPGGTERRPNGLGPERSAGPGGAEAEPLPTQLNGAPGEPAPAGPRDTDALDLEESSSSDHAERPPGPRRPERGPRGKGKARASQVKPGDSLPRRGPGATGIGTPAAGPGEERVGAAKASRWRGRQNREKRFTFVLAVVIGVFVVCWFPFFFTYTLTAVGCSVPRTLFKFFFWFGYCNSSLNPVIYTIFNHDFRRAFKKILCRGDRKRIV
Sequence of tachykinin NK2 (P21452 whole entry): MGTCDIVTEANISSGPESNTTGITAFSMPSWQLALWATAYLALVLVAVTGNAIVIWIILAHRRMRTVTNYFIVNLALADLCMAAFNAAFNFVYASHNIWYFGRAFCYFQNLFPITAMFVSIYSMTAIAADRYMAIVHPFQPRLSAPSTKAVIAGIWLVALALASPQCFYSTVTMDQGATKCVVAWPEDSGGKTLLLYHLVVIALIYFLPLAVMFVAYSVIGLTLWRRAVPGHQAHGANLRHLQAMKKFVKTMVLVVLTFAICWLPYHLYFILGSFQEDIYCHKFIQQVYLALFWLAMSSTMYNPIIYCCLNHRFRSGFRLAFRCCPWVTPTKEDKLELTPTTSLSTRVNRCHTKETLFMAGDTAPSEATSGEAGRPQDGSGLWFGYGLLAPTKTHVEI
Sequence of tachykinin NK1 (P25103 whole entry): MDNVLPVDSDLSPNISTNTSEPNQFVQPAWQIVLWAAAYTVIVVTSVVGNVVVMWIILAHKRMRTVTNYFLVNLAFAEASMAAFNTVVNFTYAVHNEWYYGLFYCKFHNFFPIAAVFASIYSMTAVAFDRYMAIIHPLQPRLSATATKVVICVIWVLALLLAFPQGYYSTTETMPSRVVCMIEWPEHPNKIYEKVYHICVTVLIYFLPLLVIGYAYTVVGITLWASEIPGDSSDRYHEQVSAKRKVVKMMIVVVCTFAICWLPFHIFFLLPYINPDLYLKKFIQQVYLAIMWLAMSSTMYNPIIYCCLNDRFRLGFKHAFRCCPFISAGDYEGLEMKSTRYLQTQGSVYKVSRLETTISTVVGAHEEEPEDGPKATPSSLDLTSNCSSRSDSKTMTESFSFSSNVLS
Sequence of neuropeptide Y NPY1 (P25929 whole entry): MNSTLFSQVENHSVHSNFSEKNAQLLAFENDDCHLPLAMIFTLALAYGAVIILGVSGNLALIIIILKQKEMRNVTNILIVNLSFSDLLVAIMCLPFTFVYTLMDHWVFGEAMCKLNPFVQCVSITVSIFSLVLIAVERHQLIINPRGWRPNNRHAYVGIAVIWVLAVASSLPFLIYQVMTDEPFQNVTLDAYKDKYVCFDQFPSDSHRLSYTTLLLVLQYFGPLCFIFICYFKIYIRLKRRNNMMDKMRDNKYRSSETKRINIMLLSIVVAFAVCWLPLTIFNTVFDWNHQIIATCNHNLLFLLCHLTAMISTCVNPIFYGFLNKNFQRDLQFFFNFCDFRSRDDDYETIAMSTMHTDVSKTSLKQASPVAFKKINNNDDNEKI
Sequence of dopamine D4.4 (P21917 whole entry): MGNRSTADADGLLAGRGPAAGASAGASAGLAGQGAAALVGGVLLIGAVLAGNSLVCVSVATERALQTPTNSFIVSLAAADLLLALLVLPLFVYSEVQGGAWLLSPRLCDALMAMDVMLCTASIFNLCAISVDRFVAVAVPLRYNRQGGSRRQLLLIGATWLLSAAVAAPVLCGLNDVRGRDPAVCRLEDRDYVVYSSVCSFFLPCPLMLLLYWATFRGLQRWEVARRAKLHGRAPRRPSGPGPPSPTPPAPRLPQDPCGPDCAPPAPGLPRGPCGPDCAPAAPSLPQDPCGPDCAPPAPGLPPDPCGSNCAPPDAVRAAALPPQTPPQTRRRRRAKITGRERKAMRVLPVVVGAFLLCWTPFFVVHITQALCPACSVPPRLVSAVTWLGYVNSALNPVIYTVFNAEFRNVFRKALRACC
Sequence of adrenergic β1 (P08588 whole entry): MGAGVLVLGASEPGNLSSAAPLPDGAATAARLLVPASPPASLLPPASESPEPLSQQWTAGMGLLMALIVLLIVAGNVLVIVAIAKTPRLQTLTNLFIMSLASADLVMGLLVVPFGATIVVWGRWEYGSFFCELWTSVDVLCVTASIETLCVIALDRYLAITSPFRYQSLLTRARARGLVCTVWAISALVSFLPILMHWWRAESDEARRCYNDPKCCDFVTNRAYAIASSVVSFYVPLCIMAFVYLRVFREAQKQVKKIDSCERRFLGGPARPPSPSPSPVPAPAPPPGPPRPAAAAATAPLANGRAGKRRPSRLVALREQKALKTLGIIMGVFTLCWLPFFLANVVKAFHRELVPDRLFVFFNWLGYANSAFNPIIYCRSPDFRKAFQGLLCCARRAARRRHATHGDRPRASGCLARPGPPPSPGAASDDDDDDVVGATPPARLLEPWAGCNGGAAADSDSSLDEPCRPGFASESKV
Sequence of muscarinic M4 (P08173 whole entry): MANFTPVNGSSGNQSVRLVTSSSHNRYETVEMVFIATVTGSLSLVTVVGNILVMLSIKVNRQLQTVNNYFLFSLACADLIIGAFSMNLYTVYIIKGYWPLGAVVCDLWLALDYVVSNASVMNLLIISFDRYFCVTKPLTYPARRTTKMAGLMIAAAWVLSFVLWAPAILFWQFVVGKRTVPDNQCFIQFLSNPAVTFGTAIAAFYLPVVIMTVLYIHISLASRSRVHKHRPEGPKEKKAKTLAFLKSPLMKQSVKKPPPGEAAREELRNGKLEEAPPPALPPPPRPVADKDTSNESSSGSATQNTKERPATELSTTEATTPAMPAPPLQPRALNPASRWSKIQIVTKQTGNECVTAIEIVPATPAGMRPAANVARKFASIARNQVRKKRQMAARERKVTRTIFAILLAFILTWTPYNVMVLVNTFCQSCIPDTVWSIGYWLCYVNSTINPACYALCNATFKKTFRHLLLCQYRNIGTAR
Sequence of Serotonin 5-HT2A (P28223 whole entry): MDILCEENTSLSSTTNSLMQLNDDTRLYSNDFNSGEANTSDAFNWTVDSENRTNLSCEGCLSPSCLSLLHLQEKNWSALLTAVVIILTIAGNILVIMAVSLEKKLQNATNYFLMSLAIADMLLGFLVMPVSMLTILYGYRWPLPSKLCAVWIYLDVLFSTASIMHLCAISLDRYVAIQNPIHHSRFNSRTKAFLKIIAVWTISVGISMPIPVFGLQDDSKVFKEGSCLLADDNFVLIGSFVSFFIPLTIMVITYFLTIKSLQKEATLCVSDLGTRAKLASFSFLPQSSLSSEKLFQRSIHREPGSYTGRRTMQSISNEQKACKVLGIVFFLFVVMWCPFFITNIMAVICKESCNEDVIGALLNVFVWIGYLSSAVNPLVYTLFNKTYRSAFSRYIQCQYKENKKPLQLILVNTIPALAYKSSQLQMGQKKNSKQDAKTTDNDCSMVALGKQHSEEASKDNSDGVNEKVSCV
Sequence of Serotonin 5-HT1B (P28222 whole entry): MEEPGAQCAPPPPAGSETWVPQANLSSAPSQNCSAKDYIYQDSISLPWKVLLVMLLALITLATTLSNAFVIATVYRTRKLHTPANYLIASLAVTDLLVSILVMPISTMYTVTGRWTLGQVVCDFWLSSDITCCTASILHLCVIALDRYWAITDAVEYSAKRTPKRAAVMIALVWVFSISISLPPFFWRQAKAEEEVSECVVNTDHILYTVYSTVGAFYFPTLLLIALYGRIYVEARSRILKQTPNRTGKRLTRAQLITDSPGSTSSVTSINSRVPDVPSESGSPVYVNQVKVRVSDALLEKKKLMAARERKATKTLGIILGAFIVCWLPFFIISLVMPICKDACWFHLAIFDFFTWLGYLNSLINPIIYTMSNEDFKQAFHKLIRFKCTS

Row | SMILES | binding activity [1] | Ki (Adrenergic α1A) | effect on the activity of nitric oxide synthetase (nitric oxide synthetase) | binding activity (dopamine D4.7) | binding activity (neuropeptide Y NPY1) | binding activity (tachykinin NK2) | Ki (Serotonin 5-HT1B) | binding activity (dopamine D4.2) | binding activity (tachykinin NK3) | binding activity [2] | binding activity (dopamine D4.4) | binding activity [3] | binding activity (serotonin 5-HT4) | binding activity (muscarinic M4) | binding activity [4] | binding activity (adrenergic β2) | binding activity (muscarinic M5) | binding activity (muscarinic M3) | binding activity (nicotinic) | binding activity (adrenergic β1) | other results
1 | Oc1ccc2c(c1O)-c1cccc3c1C(C2)NCC3 (stereo not shown) [Norapomorphine, norapomorphine] | did not bind significantly | 4170 nM | neither apomorphine nor its metabolite norapomorphine demonstrated any significant effect | did not bind significantly | did not bind significantly | did not bind significantly | 3560 nM | did not bind significantly | did not bind significantly | did not bind significantly | did not bind significantly | did not bind significantly | did not bind significantly | did not bind significantly | did not bind significantly | did not bind significantly | did not bind significantly | did not bind significantly | did not bind significantly | did not bind significantly | Ki (Adrenergic α2A; Adrenergic α2A, read-out: Ki): 1430 nM; binding activity (muscarinic M1): did not bind significantly; Ki (Serotonin 5-HT2): N/S (N/S = no significant activity (≧50% at 10 μM)); Ki (Serotonin 5-HT7; Serotonin 5-HT7, read-out: Ki): 1380 nM; Ki (Serotonin 5-HT1A): 439 nM; Ki (Serotonin 5-HT2A; Serotonin 5-HT2A, read-out: Ki): 1120 nM; binding activity (muscarinic M2): did not bind significantly; binding activity (neuropeptide Y NPY2): did not bind significantly; binding activity (tachykinin NK1): did not bind significantly; Ki (Serotonin 5-HT6): 1670 nM; binding activity (adrenergic β3): did not bind significantly; Ki (Opiate μ): 2090 nM; Ki (Dopamine D3): 117 nM; Ki (Dopamine D2S): 1100 nM; Ki (Adrenergic α2B): 213 nM
2 | CN1CCc2cccc3c2[C@H]1Cc1ccc(O)c(O)c1-3 [Apomorphine, (R)-5,6,6a,7-tetrahydro-6-methyl-4H-dibenzo-[de,g]quinoline-10,11-diol] | No significant binding activity | 343 nM | neither apomorphine nor its metabolite norapomorphine demonstrated any significant effect | No significant binding activity | No significant binding activity | No significant binding activity | 205 nM | No significant binding activity | No significant binding activity | No significant binding activity | No significant binding activity | No significant binding activity | No significant binding activity | No significant binding activity | No significant binding activity | No significant binding activity | No significant binding activity | No significant binding activity | No significant binding activity | No significant binding activity | Ki (Adrenergic α2A): 71 nM; Ki (Adrenergic α1B): 882 nM; Ki (Serotonin 5-HT2; read-out: Ki): 111 nM; Ki (Adrenergic α2C): 19 nM; binding activity (opiate δ): No significant binding activity; Ki (Serotonin 5-HT7): 65 nM; Ki (Serotonin 5-HT2A): 27 nM; binding activity (muscarinic M2): No significant binding activity; binding activity (opiate κ): No significant binding activity; binding activity (neuropeptide Y NPY2): No significant binding activity; binding activity (tachykinin NK1): No significant binding activity; Ki (Serotonin 5-HT6): 206 nM; Ki (Serotonin 5-HT1D): 288 nM; binding activity (adrenergic β3): No significant binding activity; binding activity (Opiate μ): No significant binding activity
